Laboratory results: US7628979B1, “Use of calco oil blue V in bait formulations for marking and controlling subterranean termites” (The United States of America as represented by the …, priority 2005, dated 2009)

Tested on: Formosan subterranean termites
Experiment: In-field marking and control, bait at infested trees, sites 1 and 2
Type: in vivo
Details: for Bait consumption: 250 ppm bait
Excerpt: Formosan subterranean termite and native subterranean termite infested trees (Water Oaks and Legastrums) in New Orleans, La. were chosen for this study. Three sites were selected located at the Southern Regional Research Center campus. Site 1 was located near the service building next to an old water oak tree, site 2 was located in the compound area near ligastrum trees, and site 3 near ligastrum trees outside the compound area. Sites 1 and 2 were active with Formosan subterranean termites and site 3 with Eastern subterranean termites.
The colored bait matrix at 250 ppm was encapsulated as described above and placed directly in the base of the trees where termites were foraging, making sure that the encapsulated colored bait matrix was covered with soil or with a piece of wood or brick on top of it to prevent desiccation. The bait was periodically inspected for consumption and termite activity. The field study started in early August and was completed by the end of the following June. During winter (December-February) termite activity decreased considerably, but by April termite activity and foraging resumed and the blue colored matrix was replaced by bait formulation containing 250 ppm of chitin synthesis inhibitors to kill the colonies. Diflubenzuron was used in 2 of the sites and chlorfluazuron was used in the remaining site.

CCCCC(CC)CNc1ccc(NCC(CC)CCCC)c2c1C(=O)c1ccccc1C2=O (stereo not drawn) [Calco oil blue V, 9,10-anthracenedione, 1,4-bis[(2-ethylhexyl)amino]]
Bait consumption (Site 1 (Water Oak), day 7): 0 g
Bait consumption (Site 1 (Water Oak), day 14): 150 g
Bait consumption (Site 1 (Water Oak), day 21): 350 g
Bait consumption (Site 1 (Water Oak), day 27): 400 g
Bait consumption (Site 1 (Water Oak), day 46): 400 g
Bait consumption (Site 1 (Water Oak), day 56): 100 g
Bait consumption (Site 1 (Water Oak), day 73): 0 g
Bait consumption (Site 1 (Water Oak), day 83): 0 g
Bait consumption (Site 1 (Water Oak), day 102): 0 g
Bait consumption (Site 1 (Water Oak), day 159): 0 g
Bait consumption (Site 1 (Water Oak), day 221): 0 g
Bait consumption (Site 1 (Water Oak), day 251): 0 g
Bait consumption (Site 1 (Water Oak), day 281): 0 g
Bait consumption (Site 2 (Ligastrum), day 7): 0 g
Bait consumption (Site 2 (Ligastrum), day 14): 200 g
Bait consumption (Site 2 (Ligastrum), day 21): 450 g
Bait consumption (Site 2 (Ligastrum), day 27): 300 g
Bait consumption (Site 2 (Ligastrum), day 46): 250 g
Bait consumption (Site 2 (Ligastrum), day 56): 350 g
Bait consumption (Site 2 (Ligastrum), day 73): 250 g
Bait consumption (Site 2 (Ligastrum), day 83): 300 g
Bait consumption (Site 2 (Ligastrum), day 102): 400 g
Bait consumption (Site 2 (Ligastrum), day 159): 200 g
Bait consumption (Site 2 (Ligastrum), day 221): 0 g
Bait consumption (Site 2 (Ligastrum), day 251): 0 g
Bait consumption (Site 2 (Ligastrum), day 281): 0 g
time termite workers remained visibly colored after removing the blue colored bait formulation (field, 250 ppm): 1 week
marking of termites after feeding on colored bait matrix (field, 250 ppm colored bait matrix without diflubenzuron): visibly colored blue
period to eliminate the colonies (field, calco oil blue bait followed by bait with 250 ppm chitin synthesis inhibitors): 2 months
effect on termite colonies and termite activity (field, matrix with calco oil blue V alone, 250 ppm): did not kill the termite colonies nor reduce termite activity
